This experiment concerns the target 5-HT2A (Homo sapiens, UniProt P28223). Kind of experiment: PDSP radioligand binding.

SMILES strings stand for the structures.

By Ki is commonly meant the equilibrium dissociation constant of an inhibitor or competing ligand from its target. Read a low Ki as a stronger hold on the target.

5-HT2A, sequence (P28223 whole entry, species assumed): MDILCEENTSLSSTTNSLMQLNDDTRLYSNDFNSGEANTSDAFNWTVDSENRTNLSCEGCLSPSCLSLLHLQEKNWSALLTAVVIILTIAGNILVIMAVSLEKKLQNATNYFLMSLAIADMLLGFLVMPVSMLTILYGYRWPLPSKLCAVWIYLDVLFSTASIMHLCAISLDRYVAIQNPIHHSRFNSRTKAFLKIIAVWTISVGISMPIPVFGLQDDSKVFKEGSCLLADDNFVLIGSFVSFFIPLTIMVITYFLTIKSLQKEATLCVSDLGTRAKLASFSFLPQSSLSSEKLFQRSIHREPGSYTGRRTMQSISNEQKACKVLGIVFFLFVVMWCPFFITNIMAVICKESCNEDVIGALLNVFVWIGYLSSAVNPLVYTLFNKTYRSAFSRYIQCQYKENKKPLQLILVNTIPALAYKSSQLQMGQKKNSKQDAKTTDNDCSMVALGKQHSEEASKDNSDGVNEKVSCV

For the compound `COc1ccc(N=Nc2ccc3[nH]cc(CCN(C)C)c3c2)cc1` [2h], the affinity corresponds to a Ki of 0.225 µM.

For the origin of these results see paper PMC9324199 (Angewandte Chemie (International Ed. in English), 2022).
